Literature values, collected in patent US20050272031A1, “Viral variants and uses therefor” (MELBOURNE HEALTH, priority 2000, published 2005).

Test system: HBV

Q: Which “anti-HBV activity in vitro” value does the source give for `Nc1ncnc2c1ncn2CCOCP(=O)(O)O` [Adefovir] here?
A: effective anti-HBV activity in vitro
